The target in one data set is DNA gyrase subunit B (Streptococcus pneumoniae serotype 4 (strain ATCC BAA-334 / TIGR4), UniProt P0A4L9). The data set can be described thus: Inhibition of Streptococcus pneumoniae SP-3 gyrB by enzyme coupled phosphate assay.
Another data set concerns the target T1, ParE (Streptococcus pneumoniae, UniProt Q7X1P7).
T1 sequence (Q7X1P7 whole entry): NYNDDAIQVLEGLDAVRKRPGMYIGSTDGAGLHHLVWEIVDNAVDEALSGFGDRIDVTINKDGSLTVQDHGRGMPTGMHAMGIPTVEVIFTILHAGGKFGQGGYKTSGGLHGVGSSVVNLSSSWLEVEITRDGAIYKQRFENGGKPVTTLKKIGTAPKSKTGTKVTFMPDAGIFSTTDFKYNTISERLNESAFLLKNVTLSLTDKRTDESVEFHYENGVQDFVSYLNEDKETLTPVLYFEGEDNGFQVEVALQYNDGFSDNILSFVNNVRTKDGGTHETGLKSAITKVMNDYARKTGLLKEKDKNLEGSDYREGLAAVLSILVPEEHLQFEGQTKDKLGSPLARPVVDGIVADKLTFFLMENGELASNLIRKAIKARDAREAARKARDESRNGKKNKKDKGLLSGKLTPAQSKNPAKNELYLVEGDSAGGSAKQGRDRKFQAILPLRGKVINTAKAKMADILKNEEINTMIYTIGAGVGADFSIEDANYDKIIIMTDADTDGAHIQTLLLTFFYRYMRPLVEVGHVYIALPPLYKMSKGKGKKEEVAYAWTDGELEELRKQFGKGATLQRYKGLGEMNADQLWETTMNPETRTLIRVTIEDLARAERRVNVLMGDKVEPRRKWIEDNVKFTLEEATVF
The data set is described as follows: Inhibition of Streptococcus pneumoniae SP-3 parE after 30 mins.

Data set [1] has as its system Staphylococcus aureus. The data set can be described thus: Antibacterial activity against Staphylococcus aureus UC76 by NCCLS method. The format is functional, organism-based.
The test system of data set [2] is Staphylococcus aureus. The data set is described as follows: Antibacterial activity against methicillin resistant Staphylococcus aureus SA-1417 by NCCLS method. Type of data set: functional.
Data set [3] concerns Streptococcus pyogenes. The data set is described as follows: Antibacterial activity against Streptococcus pyogenes SP1-1 by NCCLS method. Type of data set: functional.
For data set [4], the system named is Streptococcus pneumoniae. The data set is described as follows: Antibacterial activity against Streptococcus pneumoniae SP-3 by NCCLS method. Type of data set: functional.
In data set [5] the test system is Streptococcus pneumoniae. The data set is described as follows: Antibacterial activity against fluoroquinolone resistant Streptococcus pneumoniae SP-3765 by NCCLS method. The format is functional.
The test system of data set [6] is Streptococcus pyogenes. The data set is described as follows: Antibacterial activity against Streptococcus pyogenes SP1-1 infected in po dosed mouse sepsis model. Type of data set: functional. The note with it: SP1-1, po, read-out: PD50.
Data set [7] has as its system Streptococcus pneumoniae. The data set is described as follows: Antibacterial activity against Streptococcus pneumoniae SV-1 infected in po dosed mouse lung. The format is functional. Conditions: SV-1, po, read-out: PD50.
The nature of data set [8]: Bioavailability in rat. The format is ADME, organism-based. The note with it: in vivo.
Data set [9] can be described thus: Clearance in rat. Conditions: in vivo. Type of data set: ADME, organism-based.
The nature of data set [10]: Volume of distribution in rat. The note with it: in vivo. The format is ADME, organism-based.
The test system of data set [11] is Staphylococcus aureus. The data set can be described thus: Antibacterial activity against methicillin resistant Staphylococcus aureus 01A-1095 by NCCLS method. Type of data set: functional.
For data set [12], the system named is Streptococcus pyogenes. The data set is described as follows: Antibacterial activity against Streptococcus pyogenes C203 by NCCLS method. Type of data set: functional.
Data set [13] deals with Streptococcus pneumoniae. The data set is described as follows: Antibacterial activity against Streptococcus pneumoniae D39 by NCCLS method. Type of data set: functional.

Converted amounts (≈) assume the structure as drawn. Bounds are passed on as bounds.

Chain of DNA gyrase subunit B (P0A4L9 whole entry): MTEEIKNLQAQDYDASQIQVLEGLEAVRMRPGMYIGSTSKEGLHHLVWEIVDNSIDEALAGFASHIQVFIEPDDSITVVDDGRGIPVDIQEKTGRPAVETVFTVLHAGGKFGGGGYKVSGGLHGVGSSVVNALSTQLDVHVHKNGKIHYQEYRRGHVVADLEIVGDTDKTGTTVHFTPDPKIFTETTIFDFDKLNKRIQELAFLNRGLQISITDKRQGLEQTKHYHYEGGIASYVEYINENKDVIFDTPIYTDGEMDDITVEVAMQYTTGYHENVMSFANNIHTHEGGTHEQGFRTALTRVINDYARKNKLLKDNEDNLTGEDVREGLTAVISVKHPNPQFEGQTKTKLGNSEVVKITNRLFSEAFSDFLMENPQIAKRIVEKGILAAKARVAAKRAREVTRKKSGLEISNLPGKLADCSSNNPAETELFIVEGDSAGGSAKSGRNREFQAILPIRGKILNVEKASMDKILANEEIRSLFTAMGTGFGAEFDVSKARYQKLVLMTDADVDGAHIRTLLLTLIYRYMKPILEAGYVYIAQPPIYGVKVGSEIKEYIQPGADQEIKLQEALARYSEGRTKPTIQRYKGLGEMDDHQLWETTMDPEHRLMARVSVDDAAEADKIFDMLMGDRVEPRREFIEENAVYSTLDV

As to `CCNC(=O)Nc1cn2c(-c3ncc(C)cn3)cc(-c3ccn(CCF)c(=O)c3)cc2n1`, the results for the IC50 against DNA gyrase subunit B and against ParE were 376 nM and 10000 nM, respectively. Also, the MIC (usually the lowest concentration found to suppress growth) was 0.5 µg/mL (≈ 1.15 µM) with Staphylococcus aureus [1] (read-out: MIC); 1 µg/mL (≈ 2.3 µM) in the data set with Staphylococcus aureus [2]; 0.5 µg/mL (≈ 1.15 µM) in the data set with Streptococcus pyogenes [3]; 0.125 µg/mL (≈ 0.287 µM) in the data set on Streptococcus pneumoniae [4]; 0.5 µg/mL (≈ 1.15 µM) against Streptococcus pneumoniae [5].
Consider `CCNC(=O)Nc1cn2c(-c3ncc(C)cn3)cc(-c3ccn(CC)c(=O)c3)cc2n1`, for which the IC50 – broadly, the concentration that gives 50% inhibition – on DNA gyrase subunit B came to 51 nM; on ParE, 624 nM. Also, the MIC in the data set with Staphylococcus aureus [1] (read-out: MIC) was determined as 0.25 µg/mL (≈ 0.599 µM); against Staphylococcus aureus [2], 0.5 µg/mL (≈ 1.2 µM); with Streptococcus pyogenes [3], 1 µg/mL (≈ 2.4 µM); against Streptococcus pneumoniae [4], 0.06 µg/mL (≈ 0.144 µM); with Streptococcus pneumoniae [5], 0.125 µg/mL (≈ 0.299 µM).
`CCNC(=O)Nc1cn2c(-c3ncccn3)cc(-c3cccnc3)cc2n1`: the IC50 against DNA gyrase subunit B was 48 nM; on ParE, 447 nM. The MIC came to 0.5 µg/mL (≈ 1.39 µM) in the data set on Staphylococcus aureus [1] (read-out: MIC); 0.5 µg/mL (≈ 1.39 µM) against Staphylococcus aureus [2]; 0.25 µg/mL (≈ 0.696 µM) in the data set on Streptococcus pyogenes [3]; 0.125 µg/mL (≈ 0.348 µM) with Streptococcus pneumoniae [4]; 0.25 µg/mL (≈ 0.696 µM) with Streptococcus pneumoniae [5]. In addition, the ED50 in the data set with Streptococcus pyogenes [6] was 24 mg/kg; in the data set on Streptococcus pneumoniae [7] it was 35 mg/kg. For the same molecule, the bioavailability – broadly, the share of a dose that reaches the circulation, judged against a reference dose that is usually intravenous – in data set [8] worked out at 56%. In addition, the clearance (usually a measure of how efficiently the substance is removed, as volume per time) in data set [9] is 33 mL/min/kg. Besides, the Vd (as a rule, the apparent volume that relates the amount in the body to the concentration in plasma or blood) in [10] worked out at 1.6 L/kg.
Consider `CCNC(=O)Nc1cn2c(-c3ncc(C)cn3)cc(-c3ccc(OC)nc3)cc2n1`, for which the IC50 against DNA gyrase subunit B worked out at 117 nM; against ParE, 147 nM. Also, the MIC was 0.5 µg/mL (≈ 1.24 µM) with Staphylococcus aureus [1] (read-out: MIC); 2 µg/mL (≈ 4.96 µM) against Staphylococcus aureus [2]; 0.5 µg/mL (≈ 1.24 µM) in the data set on Streptococcus pyogenes [3]; 0.25 µg/mL (≈ 0.62 µM) with Streptococcus pneumoniae [4]; 0.125 µg/mL (≈ 0.31 µM) in the data set on Streptococcus pneumoniae [5].
As for `CCNC(=O)Nc1cn2c(-c3ncc(C)cn3)cc(-c3ccc(C)nc3)cc2n1`, the IC50 came to 96 nM on DNA gyrase subunit B and 373 nM at ParE. Moreover, the minimum inhibitory concentration (MIC) was found to be 0.5 µg/mL (≈ 1.29 µM) in the data set on Staphylococcus aureus [1] (read-out: MIC); 1 µg/mL (≈ 2.58 µM) with Staphylococcus aureus [2]; 0.25 µg/mL (≈ 0.645 µM) in the data set with Streptococcus pyogenes [3]; 0.5 µg/mL (≈ 1.29 µM) in the data set on Streptococcus pneumoniae [4]; 0.25 µg/mL (≈ 0.645 µM) against Streptococcus pneumoniae [5].
On to `CCNC(=O)Nc1cn2c(-c3ncc(C)cn3)cc(-c3cnc(N(C)C)nc3)cc2n1`, for which the figures for the IC50 on DNA gyrase subunit B and at ParE were 524 nM and 1380 nM, respectively. In addition, the MIC was 1 µg/mL (≈ 2.4 µM) in the data set on Staphylococcus aureus [1] (read-out: MIC); 4 µg/mL (≈ 9.58 µM) in the data set on Staphylococcus aureus [2]; 0.5 µg/mL (≈ 1.2 µM) in the data set with Streptococcus pyogenes [3]; 0.25 µg/mL (≈ 0.599 µM) with Streptococcus pneumoniae [4]; 0.125 µg/mL (≈ 0.299 µM) against Streptococcus pneumoniae [5].
Regarding `CCNC(=O)Nc1cn2c(-c3ncc(C)cn3)cc(-c3cccnc3)cc2n1`, the IC50 against DNA gyrase subunit B was 53 nM; on ParE, 250 nM. The minimum inhibitory concentration (MIC) in the data set on Staphylococcus aureus [1] (read-out: MIC) came out at 0.5 µg/mL (≈ 1.34 µM); with Staphylococcus aureus [2], 0.5 µg/mL (≈ 1.34 µM); with Streptococcus pyogenes [3] it was 0.5 µg/mL (≈ 1.34 µM); in the data set on Streptococcus pneumoniae [4], 0.125 µg/mL (≈ 0.335 µM); against Streptococcus pneumoniae [5], 0.125 µg/mL (≈ 0.335 µM). For the same molecule, the results for the ED50 in the data set on Streptococcus pyogenes [6] and in the data set on Streptococcus pneumoniae [7] were 24 mg/kg and 21 mg/kg, respectively. Moreover, in [8], the bioavailability came out at 99%. Moreover, the clearance in [9] was determined as 18 mL/min/kg. This molecule had a Vd in data set [10] of 1.3 L/kg.
With `CCCn1ccc(-c2cc(-c3ncc(C)cn3)n3cc(NC(=O)NCC)nc3c2)cc1=O`, the figures for the IC50 on DNA gyrase subunit B and on ParE were 97 nM and 1020 nM, respectively. Besides, the MIC turned out to be 0.125 µg/mL (≈ 0.29 µM) in the data set on Staphylococcus aureus [1] (read-out: MIC); 0.25 µg/mL (≈ 0.579 µM) against Staphylococcus aureus [2]; 0.25 µg/mL (≈ 0.579 µM) against Streptococcus pyogenes [3]; 0.06 µg/mL (≈ 0.139 µM) in the data set on Streptococcus pneumoniae [4]; 0.06 µg/mL (≈ 0.139 µM) in the data set on Streptococcus pneumoniae [5].
In the case of `CCNC(=O)Nc1cn2c(-c3ncc(C)cn3)cc(-c3cncnc3)cc2n1`, the results for the IC50 on DNA gyrase subunit B and at ParE were 36 nM and 258 nM, respectively. Besides, the MIC was 0.25 µg/mL (≈ 0.668 µM) in the data set with Staphylococcus aureus [1] (read-out: MIC); 1 µg/mL (≈ 2.67 µM) against Staphylococcus aureus [2]; 0.5 µg/mL (≈ 1.34 µM) in the data set with Streptococcus pyogenes [3]; 0.25 µg/mL (≈ 0.668 µM) in the data set with Streptococcus pneumoniae [4]; 0.06 µg/mL (≈ 0.16 µM) in the data set on Streptococcus pneumoniae [5].
In the case of `CCNC(=O)Nc1cn2c(-c3ncc(C)cn3)cc(-c3ccn(CCOC)c(=O)c3)cc2n1`, the IC50 at DNA gyrase subunit B is 401 nM; against ParE it was 1640 nM. Also, the MIC in the data set with Staphylococcus aureus [1] (read-out: MIC) was found to be 0.06 µg/mL (≈ 0.134 µM); against Staphylococcus aureus [2], 0.25 µg/mL (≈ 0.559 µM); in the data set on Streptococcus pyogenes [3], 0.06 µg/mL (≈ 0.134 µM); against Streptococcus pneumoniae [4], 0.06 µg/mL (≈ 0.134 µM); in the data set with Streptococcus pneumoniae [5], 0.125 µg/mL (≈ 0.279 µM).
With `CCNC(=O)Nc1cn2c(-c3ncc(C)cn3)cc(-c3ccn(CC(=O)O)c(=O)c3)cc2n1`, the values for the half-maximal inhibitory concentration (IC50) at DNA gyrase subunit B and against ParE were 98 nM and 2140 nM, respectively. Also, the MIC in the data set with Staphylococcus aureus [1] (read-out: MIC) worked out at 64 µg/mL (≈ 143 µM); in the data set on Staphylococcus aureus [2], 32 µg/mL (≈ 71.5 µM); with Streptococcus pyogenes [3] it was 64 µg/mL (≈ 143 µM); in the data set on Streptococcus pneumoniae [4] it was 64 µg/mL (≈ 143 µM); in the data set with Streptococcus pneumoniae [5] it was 64 µg/mL (≈ 143 µM).
`CCNC(=O)Nc1cn2c(-c3ncc(C)cn3)cc(-c3cnc(OC)nc3)cc2n1`: the IC50 is 132 nM at DNA gyrase subunit B and 3640 nM on ParE. In addition, the MIC in the data set with Staphylococcus aureus [1] (read-out: MIC) was 16 µg/mL (≈ 39.6 µM); against Staphylococcus aureus [2], more than 64 µg/mL; against Streptococcus pyogenes [3], 32 µg/mL (≈ 79.1 µM); with Streptococcus pneumoniae [4], 16 µg/mL (≈ 39.6 µM); against Streptococcus pneumoniae [5] it was 16 µg/mL (≈ 39.6 µM).
The molecule `CO[C@@H]1[C@@H](OC(N)=O)[C@@H](O)[C@H](Oc2ccc3c(O)c(NC(=O)c4ccc(O)c(CC=C(C)C)c4)c(=O)oc3c2C)OC1(C)C` [NOVOBIOCIN] returned an IC50 on ParE of 2030 nM. The MIC against Staphylococcus aureus [1] came out at 0.125 µg/mL (≈ 0.204 µM); with Streptococcus pneumoniae [5], 4 µg/mL (≈ 6.53 µM); against Staphylococcus aureus [11], 0.125 µg/mL (≈ 0.204 µM); against Streptococcus pyogenes [12], 8 µg/mL (≈ 13.1 µM); in the data set on Streptococcus pneumoniae [13], 4 µg/mL (≈ 6.53 µM).
